Each structure is given as a SMILES string.

Results on 92 molecules are retold here after ChEMBL document CHEMBL3507680, “University of Dundee, Gates Library screen for HepG2 cell viability”.

This data set can be described thus: Human HepG2 cell viability assay in 384 well format. The format is toxicity, cell-based. More on the design: dose 125 nL, time 70.5 hour; cytotoxicity at 70.5 h: concentration not given beside the values. To be noted: HepG2 cells, read-out: Inhibition.
As for `O=C(Cc1ccccc1)NCCNS(=O)(=O)C1CCCCC1`, the cytotoxicity at 70.5 h is -2.64%.

As for `CCCS(=O)(=O)NCCc1ncc(C)s1`, the cytotoxicity at 70.5 h is -11.1%. `CN(C)S(=O)(=O)N1CCN(C(=O)OC(C)(C)C)CC12CCCCC2`: the cytotoxicity at 70.5 h was -6.87%.

As for `CC(C)(NS(C)(=O)=O)c1nc(-c2ccc(F)cc2Cl)no1`, the cytotoxicity at 70.5 h was -6.02%. The result for `CC(C)(NS(C)(=O)=O)c1nc(-c2cccc(Cl)c2)no1` reads -4.4%; that for `Cn1ccc(NCc2cc3cc(F)ccc3o2)n1`, -4.66%. Take `CCN(CC)S(=O)(=O)N1CCCN(CC2CCCO2)CC1` (configuration not stated): the cytotoxicity at 70.5 h worked out at 23.8%. Regarding `CC1c2ccsc2CCN1Cc1cc2c(cc1O)OCO2` (configuration not stated), the cytotoxicity at 70.5 h is -5.73%.

On to `OC(CNC1CCOCC1)c1cccc(OCc2ccccc2)c1` (configuration not stated), for which the cytotoxicity at 70.5 h is -10.5%. In the case of `CNC(=O)NCC(CO)Cc1cccc(OC(F)(F)F)c1` (configuration not stated), the cytotoxicity at 70.5 h is -8.42%. For `CCN(CC)c1ncc(CNCC2CCCn3ccnc32)s1` (configuration not stated) the value was 8.16%.

For `Cc1ncc(CNCC(=O)NC2CCCCC2)n1-c1ccccc1`, the cytotoxicity at 70.5 h came to 9.11%. For `Cc1ccc(C)c(C(O)CN(C)Cc2nnc3ccccn23)c1` (configuration not stated) the value was 9.37%. The result for `CC1CCCN(c2ccccc2OCC(=O)NC2CCOCC2)C1` (configuration not stated) reads 28.3%; that for `O=C(CCc1ccsc1)N(Cc1ccccn1)C1CC1`, -2.46%; that for `CCC(C)NC(=O)c1ccc(-c2ccco2)[nH]c1=O` (configuration not stated), -5.06%.

Regarding `CC(COCC(F)(F)F)NC(=O)c1ccc(-c2ccco2)[nH]c1=O` (configuration not stated), the cytotoxicity at 70.5 h was -1.67%. As for `CC(C)NC(=O)CNC(=O)C12CCC(=O)N1c1cc(Cl)ccc1S2` (configuration not stated), the cytotoxicity at 70.5 h was -0.426%. With `CC(C)c1ccc(CS(=O)(=O)Cc2nc(N)nc(N(C)C)n2)cc1`, the cytotoxicity at 70.5 h is -6.09%. For `COCC(=O)N1CCN(C(=O)CCc2ccsc2)CC1` the value was -3.39%; for `CC1CCCN(c2ccccc2OCC(=O)N2CCOCC2)C1` (configuration not stated), 17.5%.

Regarding `Cc1nc(-c2ccccc2)sc1CSCCS(C)(=O)=O`, the cytotoxicity at 70.5 h worked out at 1.82%. For `Nc1cc2c(nn1)CCN(C(=O)c1csc(-c3cccs3)n1)C2` the value was -6.75%; for `Cc1nc(C(=O)NC2CCN(CCOc3ccc(Br)cc3)CC2)cs1`, 1.52%; for `Cc1nc(-c2ccccc2)sc1CSC(C)C(N)=O` (configuration not stated), -1.25%.

As to `CCOCc1cnc2n1CCN(C(=O)c1ccoc1C)C2C` (configuration not stated), the cytotoxicity at 70.5 h stood at 9.87%. Take `COCC(=O)N1CCO[C@]2(CCC[C@H]2COC)C1`: the cytotoxicity at 70.5 h was 9.79%. In the case of `O=C([C@H]1C[C@@H]2CN(c3ncc(F)cn3)C[C@H]1O2)N1CCOCC1`, the cytotoxicity at 70.5 h is -7.72%. On to `Cc1ncnc2c1CCN(S(=O)(=O)C1CC1)CC2`, for which the cytotoxicity at 70.5 h is -13.2%. As for `CS(=O)(=O)NCc1noc2c1CN(C(=O)C1CCC1)CC2`, the cytotoxicity at 70.5 h was -8.52%. The result for `CNC(=O)CC1CC2(CCNCC2)c2cc(F)ccc21` (configuration not stated) reads -3.61%; that for `c1cncc(CN2CCn3cc(CN4CCCCC4)nc3C2)c1`, -5.48%; that for `O=S(=O)(C1CC1)N1CCc2ncnc(N3CCOCC3)c2CC1`, -7.75%. The result for `CCOCC1c2c(ncn2C)CCN1C(=O)c1cscn1` (configuration not stated) reads 21.3%; that for `OCCN1CCC(F)(F)C2(CCN(c3cccnc3)C2)C1` (configuration not stated), -6.87%; that for `COCC(=O)NC1CC2(CCN(CCN(C)C)CC2)c2ccccc21` (configuration not stated), -2.09%.

Turning to `O=C([C@H]1CCCO1)N1CC[C@H](O)[C@@H]1Cc1cccnc1`, the cytotoxicity at 70.5 h is -4.15%. For `O=C(C1=CCCC1)N1C[C@@H]2COC[C@]2(COCC2CC2)C1` the value was -6.62%; for `O=C(C1CC=CC1)N1CC[C@@H](O)[C@H]1Cc1cccnc1`, 1.93%. In the case of `CCO[C@H]1CC[C@H]2[C@H]1OCCN2C(=O)COc1ccccc1`, the cytotoxicity at 70.5 h is -4.98%.

With `O=C(c1cocn1)N1C[C@@H]2COC[C@]2(COc2cccnc2)C1`, the cytotoxicity at 70.5 h is -4.92%. For `CC(C)CC(=O)N1CC[C@@H]2CN(Cc3cccnc3)S(=O)(=O)[C@@H]2CC1`, the cytotoxicity at 70.5 h was -4.78%. `CNC(=O)N1CC[C@@H]2CN(Cc3ccccc3)S(=O)(=O)[C@@H]2CC1`: the cytotoxicity at 70.5 h is -6.18%. For `CN(C)CCN1CCO[C@@H]2CN(C(=O)Cc3ccsc3)CC[C@@H]2C1` the value was -8.58%; for `COCC(=O)N1C[C@H](N(C)Cc2cncnc2)[C@H]2OCCC[C@H]21`, -8.78%; for `Cn1ccc(-c2cc(C(=O)N3CCC(C(N)=O)CC3)c3ccccn23)n1`, -8.35%. For `O=S(=O)(C1CC1)N1CCC2(COCc3cnc(-c4cccnc4)nc32)C1` (configuration not stated) the value was -10.6%; for `CS(=O)(=O)N1CCO[C@@H]2CN(C(=O)Cc3cccs3)CC[C@@H]2C1`, -9.17%. For `O=C(CC1CC1)N1CCC2(COCc3cnc(-c4cccnc4)nc32)C1` (configuration not stated) the value was -2.06%; for `Cn1cccc1C(=O)N1C[C@@H]2C[C@@H](c3nnc(C4CC4)o3)O[C@@H]2C1`, -3.51%.

For the molecule `NC(=O)N1C[C@H](NC(=O)c2cscn2)[C@@H]2OCCC[C@@H]21`, the cytotoxicity at 70.5 h was -6.33%. The result for `CS(=O)(=O)N1C[C@H](NC(=O)c2ccno2)[C@@H]2OCCC[C@@H]21` reads -7.45%; that for `CN(Cc1cccnc1)[C@@H]1CN(C(=O)c2ccco2)[C@@H]2CCCO[C@H]12`, -10.7%.

Consider `Cn1cc(CN2CCC3(CC2)CN(c2cccnc2)C(=O)CO3)cn1`, for which the cytotoxicity at 70.5 h was -5.12%. For `Cc1occc1C(=O)N1CC[C@H]2C[C@@H](c3nnc(C4CC4)o3)O[C@@H]2C1` the value was -12%; for `O=C(c1cccs1)N1CC[C@H]2C[C@@H](c3nnc(C4CC4)o3)O[C@@H]2C1`, -7%. With `CN(C)C(=O)COC1COC2(CCN(CC3CCOCC3)CC2)C1` (configuration not stated), the cytotoxicity at 70.5 h was -4.78%. For the molecule `COC1COC2(CCN(CC3CCOCC3)CC2)C1` (configuration not stated), the cytotoxicity at 70.5 h is -11.1%. For `CN1CCN(c2ncnc3c2CCN(S(=O)(=O)C2CC2)CC3)CC1` the value was -11.6%; for `CCc1cnc(N2C[C@H]3C[C@H](C(=O)N4CCOCC4)[C@@H](C2)O3)nc1`, -6.74%. For `Cc1ccccc1CN1C[C@@H]2COC[C@]2(CNC(=O)C2CCC2)C1`, the cytotoxicity at 70.5 h is -7.13%.

On to `CO[C@H]1CN(CC2CC2)[C@@H]2CCCO[C@H]12`, for which the cytotoxicity at 70.5 h was -9.81%. With `CCOCC1c2c(ncn2C)CCN1C(=O)c1cnc(C)cn1` (configuration not stated), the cytotoxicity at 70.5 h is -12%. The result for `Cc1occc1C(=O)N1CCC2(CCN(C(=O)c3cccnc3)C2)CC1` reads 5.51%; that for `COCC(=O)NCc1cc(=O)n2c(n1)CN(CC1CC1)CCC2`, 0.0162%.

Consider `COc1nn(C)c2c1CCCN(C(=O)c1cccc3cccnc13)C2`, for which the cytotoxicity at 70.5 h was -4.18%.

Regarding `c1cc(COC[C@H]2CCC[C@]23CNCCO3)ccn1`, the cytotoxicity at 70.5 h is 0.216%.

Turning to `O=C(COc1ccccc1)N1C[C@@H]2COC[C@]2(COc2cccnc2)C1`, the cytotoxicity at 70.5 h worked out at 4.76%. As to `O=C(c1ccc(F)cc1)N1C[C@@H]2COC[C@]2(COc2cccnc2)C1`, the cytotoxicity at 70.5 h was determined as 14.6%. As for `O=C(NC1CCCC1)[C@@H]1C[C@@H]2CCN(Cc3ccoc3)C[C@H]2O1`, the cytotoxicity at 70.5 h was -10%. The result for `CC(C)N1CCO[C@@H]2CN(C(=O)Cc3cccs3)CC[C@@H]2C1` reads -6.99%. With `O=C([C@@H]1C[C@@H]2CCN(Cc3ccoc3)C[C@H]2O1)N1CCCC1`, the cytotoxicity at 70.5 h is -2.05%.

For `O=C(N1CCCC1)N1CCC2(CC1)CN(c1cccnc1)C(=O)CO2`, the cytotoxicity at 70.5 h was -6.88%. In the case of `c1cc(CN2CCO[C@H]3[C@H](OCC4CCOCC4)CC[C@@H]32)co1`, the cytotoxicity at 70.5 h is -9.4%. For `O=C(N[C@@H]1CN(CC2CC2)[C@@H]2CCCO[C@@H]21)c1cscn1` the value was -1.52%; for `CC(C)NC(=O)[C@@H]1C[C@@H]2CCN(Cc3ccoc3)C[C@H]2O1`, 0.151%.

For `O=C(NC1CC1)[C@@H]1C[C@@H]2CCN(Cc3ccoc3)C[C@@H]2O1`, the cytotoxicity at 70.5 h was -8.25%. In the case of `CN(C)CCO[C@H]1CN(CC2CC2)[C@@H]2CCCO[C@H]12`, the cytotoxicity at 70.5 h is 11.6%. Regarding `COCC1CC2(CCN(c3cccc(C)n3)CC2)CN1C(C)C` (configuration not stated), the cytotoxicity at 70.5 h is -8.05%. The result for `CS(=O)(=O)NCc1cn2c(n1)CN(Cc1cccnc1)CC2` reads 9.87%. The result for `CN(C)CCn1c2c(ccc1=O)CC(NCc1cnn(C)c1)CC2` (configuration not stated) reads -8.72%; that for `Cc1cccc(CN2C[C@H](OCc3ccccn3)[C@H]3COC[C@H]32)n1`, 5.07%.

In the case of `Cn1ccnc1CN1CCC(F)(F)C2(CCN(c3cccnc3)C2)C1` (configuration not stated), the cytotoxicity at 70.5 h was -8.56%. For `c1cncc(COC[C@@H]2CCC[C@]23CNCCO3)c1` the value was 0.77%; for `Cc1ccc(CN2C[C@@H](OCc3ccccn3)[C@H]3COC[C@H]32)o1`, -5%. In the case of `Fc1ccc(CN2C[C@@H](OCc3ccccn3)[C@H]3COC[C@H]32)cc1`, the cytotoxicity at 70.5 h is -1.1%. In the case of `Cc1cccc(CN2CCC3(CC2)CN(c2cccnc2)C(=O)CO3)n1`, the cytotoxicity at 70.5 h is -4.77%.

In the case of `c1cc(CO[C@H]2CC[C@H]3[C@H]2OCCN3Cc2nccs2)ccn1`, the cytotoxicity at 70.5 h was -2.27%. The result for `Fc1ccc(CN2CCO[C@H]3[C@H](OCc4ccncc4)CC[C@@H]32)cc1` reads 55.8%.

`FC1(F)CCN(Cc2cccnc2)CC12CCN(c1ccccc1)C2` (configuration not stated): the cytotoxicity at 70.5 h is -1.56%.

`c1ccc(CO[C@@H]2CN(Cc3cccnc3)[C@@H]3COC[C@@H]32)nc1`: the cytotoxicity at 70.5 h is 5.82%.

For the molecule `CN(C)CCN1CCC2(CC1)CN(Cc1cccnc1)C(=O)CO2`, the cytotoxicity at 70.5 h is -4.21%.
